Measured values as given in patent US11980616B2, “Treating liver disease by selectively eliminating senescent cells” (Buck Institute for Research on Aging, priority 2014, dated 2024).

How the values were obtained:
[1] = test system: doxorubicin-induced senescent cells in p16-3MR mice; test: Removal of doxorubicin-induced senescent cells in p16-3MR transgenic mice; type: in vivo, mouse
Method: The capability of Nutlin-3a to remove senescent cells in vivo was determined in transgenic p16-3MR mice (see, e.g., International Application Publication No. WO2013/090645). The transgenic mouse comprises a p16^Ink4a promoter operatively linked to a trimodal fusion protein for detecting senescent cells and for selective clearance of senescent cells in these transgenic mice, which is illustrated in FIG. 7. […] 3MR (tri-modality reporter) is a fusion protein containing functional domains of a synthetic Renilla luciferase (LUC), monomeric red fluorescence protein (mRFP), and truncated herpes simplex virus (HSV)-1 thymidine kinase (tTK), which allows killing by ganciclovir (GCV) (see, e.g., Ray et al., Cancer Res. 64:1323-30 (2004)). The 3MR cDNA was inserted in frame with p16 in exon 2, creating a fusion protein containing the first 62 amino acids of p16, but not a full-length wild-type p16 protein. […] The p16^Ink4a gene promoter (approximately 100 kilobase pairs) was introduced upstream of a nucleotide sequence encoding a trimodal reporter fusion protein. Alternatively, a truncated p16^Ink4a promoter may be used (see, e.g., Baker et al., Nature, supra; International Application Publication No. WO2012/177927; Wang et al., supra). Thus, the expression of 3MR is driven by the p16^Ink4a promoter in senescent cells only. The detectable markers, LUC and mRFP permitted detection of senescent cells by bioluminescence and fluorescence, respectively. […] Transgenic founder animals, which have a C57B16 background, were established and bred using known procedures for introducing transgenes into animals (see, e.g., Baker et al., Nature 479:232-36 (2011)).
Female C57/BL6 p16-3MR mice were randomized into doxorubicin+Nutlin-3a treated or doxorubicin only treated groups (see FIG. 6). Senescence was induced by intraperitoneal administration of doxorubicin at 10 mg/kg to the mice ten days prior to administration of Nutlin-3a (Day −10). Nutlin-3a (25 mg/kg) was administered intraperitoneally daily from day 10 to day 24 post-doxorubicin treatment (Group=9 mice). Control mice (doxorubicin treated) were injected with equal volumes of PBS (Group=3 mice). Luminescence imaging (Xenogen Imaging system) was performed at Day 0 (i.e., 10 days post-doxorubicin treatment) as a baseline for each mouse (100% intensity).
Luminescence imaging of the mice was performed on day 7, 14, 21, 28, and 35 following the initiation of Nutlin-3a treatment. Reduction of luminescence (L) was calculated as: L=(Imaging post-Nutlin-3a treatment)/(Baseline Imaging)[…]. If L is greater than or equal to 100%, the number of senescent cells was not reduced. If L is less than 100%, then the number of senescent cells was reduced. Every mouse was calculated independently, and background was subtracted from each sample.
Experiments were performed to determine the effect of Nutlin-3a treatment on expression of genes associated with senescence. Groups of female C57/BL6 p16-3MR were treated as described above. Three weeks after the end of Nutlin-3a treatment (day 35), the doxorubicin treated mice (control) (N=3) and doxorubicin+Nutlin-3a-treated mice (N=6) were sacrificed. […]
RNA was analyzed for mRNA levels of endogenous senescence markers (p21, p16^INK4a (p16), and p53) and SASP factors (mmp-3 and IL-6) relative to actin mRNA (control for cDNA quantity) using the Roche Universal Probe Library for real-time PCR assay. […]

[2] = test system: IL-6 positive senescent IMR90 cells; test: IL-6 immunofluorescence in irradiated senescent IMR90 cells; type: cell-based, human
Method: Primary human fibroblast (IMR90) cells were induced to senesce by applying 10 Gy of irradiation. Seven days after irradiation (Day 0), cells were treated with 10 μM Nutlin-3a or vehicle (DMSO) for nine days (Day 9). The drug or vehicle was refreshed every three days. Drug/vehicle was removed at Day 9 and the cells were cultured for an additional three days (Day 12). Cells were then fixed with 4% paraformaldehyde and stained by immunofluorescence with a specific anti-IL-6 antibody (R&D, AF-206-NA). Cells were counterstained with DAPI for nuclear visualization. The percent IL-6 positive cells is illustrated in FIG. 12A. IL-6 positive cells were determined in an unbiased manner using CellProfiler software. Three different cultures were assessed. Non-senescent cells had no detectable cells IL-6 production while senescent cells were about 8% positive at day 9 after vehicle (DMSO) treatment (16 days after irradiation). […] At day 12, 3 days after Nutlin-3a was removed and 19 days after irradiation, IL-6 positive cells in the vehicle control were about 9% and Nutlin3a treated cells were less than 1% positive for IL-6.

[3] = test system: DNA damage response proteins in senescent IMR90 cells; test: Immunoblot of DNA damage response proteins in irradiated senescent IMR90 cells; type: cell-based, human
Method: Primary human fibroblast (IMR90) cells were induced to senesce by applying 10 Gy of irradiation. Seven days after irradiation (Day 0), cells were treated with 10 μM Nutlin-3a or vehicle (DMSO) for nine days (Day 9). The drug or vehicle was refreshed every three days. Drug/vehicle was removed at Day 9 and the cells were cultured for an additional six days in media without drug or DMSO, changing media every three days. Cells were collected at Day 0 (non-senescent cells), Day 9, Day 12, and Day 15, and protein extracted and processed for immunoblotting (Western blotting). Two samples were processed at each time point; the results are provided for one sample in FIG. 14.

[4] = 10 μM, decreased when the drug was removed

## COc1ccc(C2=N[C@@H](c3ccc(Cl)cc3)[C@@H](c3ccc(Cl)cc3)N2C(=O)N2CCNC(=O)C2)c(OC(C)C)c1 [Nutlin-3a]
[1]; 25 mg/kg i.p. daily day 10 to 24 post-doxorubicin
  Luminescence associated with doxorubicin-induced senescence (% of baseline): reduced luminescence
[1]; 25 mg/kg i.p. daily, at day 14, day 28 and day 35
  Decrease in luminescence: statistically significant decrease
[1]; day 35, vs doxorubicin alone
  γH2AX positive cells (DNA damage) in lung sections: reduced the number of cells with DNA damage
[1]; skin and fat, day 35, vs doxorubicin alone
  mRNA of SASP factors (mmp-3, IL-6) and senescence markers (p21, p16, p53): reduced expression
[1]; three weeks after treatment, vs doxorubicin alone
  Senescence-associated β-gal intensity in fat biopsies: reduced senescence-associated β-gal intensity
[2]; 10 μM, Day 9, vehicle about 8%
  Percent IL-6 positive cells: below 5%
[2]; Day 12, 3 days after drug removal, vehicle about 9%
  Percent IL-6 positive cells: less than 1%
[3]; 10 μM, after treatment and after drug removal
  Phosphorylation of H2AX (γH2AX): declining levels of phosphorylation
[3]; 10 μM, also after drug removal
  Phosphorylation of the kinase ATM (pATM S1981): lower
[3]; [4]
  Level of MDM2: elevated
  Level of p21: elevated
  Level of p53: elevated
[3]; after drug is removed
  Level of IkBa: approaches the level of IkBa in non-senescent cells
